Assay results reported in PMC12627862, “Therapeutic targeting of endothelial calcium signaling accelerates the resolution of lung injury” (Signal Transduction and Targeted Therapy, 2025).
Starred links: 1 amine or outer side, 2 acyl side, 3 side chain; linkers in the order of their positions; H or OH if unused. Positions of bridges follow the written chain, without caps; N, C: chain ends. Non-standard residues stand in square brackets, D forms with d. Residues, ends and D or L forms follow the SMILES beside them. ξ: configuration not given here. X2 = C[C@@](CCCCC=[*:3])(N[*:1])C(=O)[*:2]; Oic = O=C(O)[C@@H]1C[C@@H]2CCCC[C@@H]2N1; GABOB(3R) = O=C(C[C@@H](O)CN[*:1])[*:2]; d(tBuAla) = CC(C)(C)C[C@@H](N)C(=O)O; dVal(3-OH) = CC(C)(O)[C@@H](N)C(=O)O; tBuAla = CC(C)(C)C[C@H](N)C(=O)O; ξVal(3-OH) = CC(C)(O)C(N)C(=O)O; R5 = C=CCCC[C@@](C)(N)C(=O)O; X1 = O=C(CC(O)CN[*:1])[*:2]; 4Amb = NCc1ccc(C(=O)O)cc1

How the values were obtained:
[1] = tested on: CD1 mice challenged with LD90 of LPS; assay: Endotoxin-induced septic shock (LD90 LPS): survival and lung compliance; type: in vivo, mouse; details: for half maximal effective concentration (EC50) on the survival rate: LPS 30 mg/kg bw i.p. (LD90), i.v. once daily, three doses, from 20 hours after LPS, n = 10 mice per group
Method: To establish the effect of VT-109 on clinically translatable outcomes, we investigated its dose-dependent effect on survival rates in a murine model of septic shock (Fig. 5a, d). In experiments involving endotoxin-induced septic shock, mice were injected intraperitoneally with a lethal dose (LD) of LPS at 30 mg/kg bw, which caused 90% mortality. The treatment cohort of mice received i.v. VT-109 at doses ranging from 1 nmol/kg to 2 µmol/kg bw, which were administered once daily for a total of three doses. All the mice also received fluid resuscitation once a day for three days.
We next examined the effect of VT-109 on lung function at 250 nmol/kg bw, the dose that produced the greatest improvement in survival rates (Fig. 5a). Lung function was assessed by measuring lung compliance in mice challenged with a lethal dose of LPS (Fig. 5c). For the control, we used a non-effective dose of VT-109 at 1 nmol/kg bw, as 90% of the mice died before reaching 48 hours post-LPS treatment if left untreated. The 1 nmol/kg bw dose was not efficacious in our mortality studies but did delay death over a 48-hour period. Static lung compliance was measured at 10 cmH2O on the expiratory limb of a P‒V loop via the Salazar–Knowles equation[49].
In the survival studies, mice received i.p. corn oil at a dose of 0.35 mL two days before the challenge. CD1 mice were injected intraperitoneally with a lethal dose 90 (LD90) of LPS (Santa Cruz Biotechnology). In most experiments, this dose was 30 mg/kg bw; however, it was adjusted for each new batch of LPS in pilot studies. In the survival study, treatment with varying doses of VT-109 (1, 10, 100, 250, 500, and 2000 nmol/kg bw) was initiated 20 hours after the LPS challenge. In the lung compliance study, a non-efficacious dose (1 nmol/kg bw) of VT-109 was used as a control, while 250 nmol/kg bw of VT-109 was used for the experimental group. Both treatments were administered intravenously 20 hours after the LPS challenge. All mice received 1 mL of prewarmed saline daily for 3 days.

Crl:CD (SD) rats = assay: Non-GLP dose-escalation (MTD) study in rats; type: in vivo, rat; set-up: key to Clinical Signs / Body Weights / Clinical Chemistry / Hematology / Coagulation: NE = no effect; DA = decreased activity; LB = labored breathing; P = piloerection; HP = hunched posture; details: for ALT / APTT / AST / Albumin / Alkaline Phosphatase / Blood Urea Nitrogen / Calcium / Chloride / Cholesterol / Creatinine / Fibrinogen / Globulin / Glucose / Phosphorus / Potassium / Prothrombin Time / Sodium / Total Bilirubin / Total Protein: male rats, day 2, mean, N=3; for Body Weights / Clinical Chemistry / Clinical Signs / Coagulation / Hematology: rats, n=3
[2] = Non-GLP dose-escalation (MTD) study in rats; type: in vivo, rat; set-up: key to Clinical Signs / Body Weights / Clinical Chemistry / Hematology / Coagulation: NE = no effect; DA = decreased activity; LB = labored breathing; P = piloerection; HP = hunched posture; details: rat, in vivo; male Crl:CD (SD) rats, single IV bolus; read-out: no observed adverse effect level (NOAEL)
in vitro = details: dog, plasma
Method: Stability assay of peptides in blood plasma of rodents, dogs, and humans. For the plasma stability assay, 5 μM of each peptide was incubated with species-specific plasma for 120 minutes and samples were taken at the required time points. Positive control used were molecules with known stability: enalapril, propantheline, and warfarin. The amount of test compound remaining at each time point was analyzed by LC-MS/MS. Appropriate control compounds for each species were also incubated.

in vivo = details: male, Crl:CD (SD), rat, iv, 5 mg/kg
Method: Blood samples were collected at predefined time points (2, 10, 30, 60, 90 minutes, and 2, 4, 6, 8, and 24 hours post-dosing) from subgroups of rats, ensuring each animal contributed a limited number of samples to minimize stress. Plasma was separated by centrifugation and stored at -80 °C until analysis. Lungs were collected at selected time points (0.5, 2, 8, and 24 hours) for drug quantification. […] Pharmacokinetic parameters, including Cmax, Tmax, AUC, half-life, clearance, and volume of distribution, were calculated using Phoenix WinNonlin software.

Structure (SMILES): CC(C)(C)C[C@@H]1NC(=O)C[C@@H](O)CNC(=O)[C@@H]2C[C@@H]3CCCC[C@@H]3N2C(=O)[C@H](CC(C)(C)C)NC(=O)c2ccc(cc2)CNC(=O)C(C(C)(C)O)NC(=O)[C@@H](Cc2ccccc2)NC1=O (stereo partly drawn) [compound 109, (1^2S,1^3aS,1^7aS,3S,10S,13R,16S,20R)-13-benzyl-20-hydroxy-10-(2-hydroxypropan-2-yl)-3,16-dineopentyl-1^2,1^3,1^3a,1^4,1^5,1^6,1^7,1^7a-octahydro-1^1H-4,8,11,14,17,22-hexaaza-1(1,2)-indola-6(1,4)-benzenacyclotricosaphane-2,5,9,12,15,18,23-heptaone.] (cyclo([4Amb][tBuAla][Oic][GABOB(3R)][tBuAla][dF][ξVal(3-OH)]))
- static lung compliance ([1]; LD90 LPS, 250 nmol/kg bw i.v., at 10 cmH2O, n = 3‒4): 0.043 ± 0.001 ml/cm H₂O
- half maximal effective concentration (EC50) on the survival rate [1]: 30 nmol/kg bw
- mortality ([1]; efficacious doses, starting at 100 nmol/kg bw or higher): reduced mortality
- EC50 on the survival rate, equivalent for humans ([1]; human equivalent of 30 nmol/kg bw): 2.2 µg/kg bw
- mice that died within 48 hours post-LPS challenge ([1]; lowest dose of VT-109 (1 nmol/kg)): 90%
- MTD, equivalent in humans (Crl:CD (SD) rats; human equivalent): ~ 2.43 mg/kg
- LOAEL, HED (Crl:CD (SD) rats; human equivalent dose): ~ 1.62 mg/kg
- NOAEL, HED (Crl:CD (SD) rats; human equivalent dose): ~ 0.81 mg/kg
- lowest observed adverse effect level (LOAEL) (Crl:CD (SD) rats; male Crl:CD (SD) rats, single IV bolus): 10 mg/kg
- ALT (Crl:CD (SD) rats; 5 mg/kg): 52.7 U/L
- APTT (Crl:CD (SD) rats; 5 mg/kg): 17.933 d¹ Seconds
- AST (Crl:CD (SD) rats; 5 mg/kg): 71.3 U/L
- Albumin (Crl:CD (SD) rats; 5 mg/kg): 3.0400 g/dL
- Alkaline Phosphatase (Crl:CD (SD) rats; 5 mg/kg): 381.7 U/L
- Blood Urea Nitrogen (Crl:CD (SD) rats; 5 mg/kg): 13.0 mg/dL
- Calcium (Crl:CD (SD) rats; 5 mg/kg): 11.320 mg/dL
- Chloride (Crl:CD (SD) rats; 5 mg/kg): 98.3 mmol/L
- Cholesterol (Crl:CD (SD) rats; 5 mg/kg): 86.0 5.6 3 mg/dL
- Creatinine (Crl:CD (SD) rats; 5 mg/kg): 0.3139 mg/dL
- Fibrinogen (Crl:CD (SD) rats; 5 mg/kg): 403.0 mg/dL
- Globulin (Crl:CD (SD) rats; 5 mg/kg): 2.239 g/dL
- Glucose (Crl:CD (SD) rats; 5 mg/kg): 161.3 mg/dL
- Phosphorus (Crl:CD (SD) rats; 5 mg/kg): 9.10 0.44 3 mg/dL
- Potassium (Crl:CD (SD) rats; 5 mg/kg): 5.93 d² mmol/L
- Prothrombin Time (Crl:CD (SD) rats; 5 mg/kg): 11.77 s
- Sodium (Crl:CD (SD) rats; 5 mg/kg): 141.3 mmol/L
- Total Bilirubin (Crl:CD (SD) rats; 5 mg/kg): 0.127 mg/dL
- Total Protein (Crl:CD (SD) rats; 5 mg/kg): 5.279 g/dL
- ALT (Crl:CD (SD) rats; 10 mg/kg): 52.0 U/L
- APTT (Crl:CD (SD) rats; 10 mg/kg): 17.800 d¹ Seconds
- AST (Crl:CD (SD) rats; 10 mg/kg): 68.3 U/L
- Albumin (Crl:CD (SD) rats; 10 mg/kg): 3.2720 0.1274 3 g/dL
- Alkaline Phosphatase (Crl:CD (SD) rats; 10 mg/kg): 323.0 U/L
- Blood Urea Nitrogen (Crl:CD (SD) rats; 10 mg/kg): 18.7 mg/dL
- Calcium (Crl:CD (SD) rats; 10 mg/kg): 11.767 mg/dL
- Chloride (Crl:CD (SD) rats; 10 mg/kg): 99.0 mmol/L
- Cholesterol (Crl:CD (SD) rats; 10 mg/kg): 88.7 2.3 3 mg/dL
- Creatinine (Crl:CD (SD) rats; 10 mg/kg): 0.318 mg/dL
- Fibrinogen (Crl:CD (SD) rats; 10 mg/kg): 453.3 mg/dL
- Globulin (Crl:CD (SD) rats; 10 mg/kg): 2.523 0.078 3 g/dL
- Glucose (Crl:CD (SD) rats; 10 mg/kg): 126.7 10.5 3 mg/dL
- Phosphorus (Crl:CD (SD) rats; 10 mg/kg): 9.67 0.45 3 mg/dL
- Potassium (Crl:CD (SD) rats; 10 mg/kg): 5.77 mmol/L
- Prothrombin Time (Crl:CD (SD) rats; 10 mg/kg): 12.27 d¹ Seconds
- Sodium (Crl:CD (SD) rats; 10 mg/kg): 144.0 mmol/L
- Total Bilirubin (Crl:CD (SD) rats; 10 mg/kg): 0.127 mg/dL
- Total Protein (Crl:CD (SD) rats; 10 mg/kg): 5.795 0.203 3 g/dL
- ALT (Crl:CD (SD) rats; 15 mg/kg): 52.7 U/L
- APTT (Crl:CD (SD) rats; 15 mg/kg): 16.867 s
- AST (Crl:CD (SD) rats; 15 mg/kg): 69.7 U/L
- Albumin (Crl:CD (SD) rats; 15 mg/kg): 3.1030 d² 0.0465 3 g/dL
- Alkaline Phosphatase (Crl:CD (SD) rats; 15 mg/kg): 286.0 U/L
- Blood Urea Nitrogen (Crl:CD (SD) rats; 15 mg/kg): 15.7 d² mg/dL
- Calcium (Crl:CD (SD) rats; 15 mg/kg): 11.590 mg/dL
- Chloride (Crl:CD (SD) rats; 15 mg/kg): 97.0 d² mmol/L
- Cholesterol (Crl:CD (SD) rats; 15 mg/kg): 91.0 6.1 3 mg/dL
- Creatinine (Crl:CD (SD) rats; 15 mg/kg): 0.352 mg/dL
- Fibrinogen (Crl:CD (SD) rats; 15 mg/kg): 438.3 mg/dL
- Globulin (Crl:CD (SD) rats; 15 mg/kg): 2.488 0.021 3 g/dL
- Glucose (Crl:CD (SD) rats; 15 mg/kg): 142.3 d² 1.2 3 mg/dL
- Phosphorus (Crl:CD (SD) rats; 15 mg/kg): 9.00 0.26 3 mg/dL
- Potassium (Crl:CD (SD) rats; 15 mg/kg): 5.47 mmol/L
- Prothrombin Time (Crl:CD (SD) rats; 15 mg/kg): 11.67 s
- Sodium (Crl:CD (SD) rats; 15 mg/kg): 142.0 mmol/L
- Total Bilirubin (Crl:CD (SD) rats; 15 mg/kg): 0.140 mg/dL
- Total Protein (Crl:CD (SD) rats; 15 mg/kg): 5.591 d² 0.067 3 g/dL
- Body Weights (Crl:CD (SD) rats; single IV bolus 5 mg/kg): NE
- Clinical Chemistry (Crl:CD (SD) rats; single IV bolus 5 mg/kg): NE
- Clinical Signs (Crl:CD (SD) rats; single IV bolus 5 mg/kg): DA
- Coagulation (Crl:CD (SD) rats; single IV bolus 5 mg/kg): NE
- Hematology (Crl:CD (SD) rats; single IV bolus 5 mg/kg): NE
- Body Weights (Crl:CD (SD) rats; single IV bolus 10 mg/kg): NE
- Clinical Chemistry (Crl:CD (SD) rats; single IV bolus 10 mg/kg): ↑BUN
- Clinical Signs (Crl:CD (SD) rats; single IV bolus 10 mg/kg): DA, LB
- Coagulation (Crl:CD (SD) rats; single IV bolus 10 mg/kg): NE
- Hematology (Crl:CD (SD) rats; single IV bolus 10 mg/kg): ↓%Reticulocytes
- Body Weights (Crl:CD (SD) rats; single IV bolus 15 mg/kg): NE
- Clinical Chemistry (Crl:CD (SD) rats; single IV bolus 15 mg/kg): ↑BUN ↑Creatinine
- Clinical Signs (Crl:CD (SD) rats; single IV bolus 15 mg/kg): DA, LB, P, HP
- Coagulation (Crl:CD (SD) rats; single IV bolus 15 mg/kg): NE
- Hematology (Crl:CD (SD) rats; single IV bolus 15 mg/kg): ↓Platelet Count ↓%Reticulocytes ↑Mean Platelet Volume
- lung gross histopathology (Crl:CD (SD) rats; single IV bolus 15 mg/kg): intra-alveolar hemorrhage and pigment deposition
- NOAEL at 72 h [2]: 5 mg/kg
- half-life at 5 μM (in vitro): > 8 h
- remaining at 2 h, 5 μM (in vitro): 91.9%
- level at 0.167 h (in vivo): 23700 ng/mL
- level at 0.5 h (in vivo): 2550 ng/mL
- level at 1 h (in vivo): 580 ng/mL
- level at 1.5 h (in vivo): 399 ng/mL
- level at 2 h (in vivo): 252 ng/mL
- level at 4 h (in vivo): 127 ng/mL
- level at 6 h (in vivo): 66.3 ng/mL
- level at 8 h (in vivo): 42.7 ng/mL
- level at 24 h (in vivo): 5.9 ng/mL

Structure (SMILES): CC(C)(C)C[C@@H]1NC(=O)[C@](C)(NC(=O)c2ccc(CNC(=O)[C@H](N)C(C)(C)O)cc2)CCC/C=C\CCCC[C@@](C)(C(=O)N[C@H](CC(C)(C)C)C(=O)O)NC(=O)CC(O)CNC(=O)[C@@H]2C[C@@H]3CCCC[C@@H]3N2C1=O (stereo partly drawn) [compound 108, (2R)-2-((8S,18R,21S,23aS,27aS,28aS,Z)-18-(4-(((R)-2-amino-3-hydroxy-3-methylbutanamido)methyl)benzamido)-4-hydroxy-8,18-dimethyl-21-neopentyl-1,6,19,22-tetraoxo-1,2,3,4,5,6,7,8,9,10,11,12,15,16,17,18,19,20,21,22,23a,24,25,26,27,27a,28,28a-octacosahydro-[1,4,7,12]tetraazacyclotetracosino[4,5-a]indole-8-carboxamido)-4,4-dimethylpentanoic acid] (H-[dVal(3-OH)][4Amb][R5][tBuAla][Oic][X1][X2][d(tBuAla)]-OH; staple (Z) 3-7)
- half maximal effective concentration (EC50) on the survival rate [1]: 308 nmol/kg bw
